# Experimental data as given in patent US10626116B2, “Crystalline form of BTK kinase inhibitor and preparation method thereof” (Jiangsu Hengrui Medicine Co., Ltd., priority 2016, dated 2020).
# Tests used:
# [1] = Stability under lighting, heating and high humidity; purity detected by HPLC; format: physicochemical; conditions: for Purity by HPLC, 40° C.: heating 40° C.; for Purity by HPLC, 40° C. / Purity by HPLC, 60° C. / Purity by HPLC, RH 75% / Purity by HPLC, RH 90% / Purity by HPLC, Lighting: spread flat in the air; for Purity by HPLC, 60° C.: heating 60° C.; for Purity by HPLC, RH 75%: high humidity RH 75%; for Purity by HPLC, RH 90%: high humidity RH 90%; for Purity by HPLC, Lighting: lighting 4500 Lux
# Protocol: The sample of amorphous form prepared in Example 1 and the sample of crystal form I prepared in Example 2 were spread flat in the air to test their stability under conditions of lighting (4500 Lux), heating (40° C., 60° C.), and high humidity (RH 75%, RH 90%), respectively. Samplings were carried out on Day 5 and Day 10.
# [2] = Special stability study of crystal form I (grinding, heating, tableting); format: physicochemical
# Text: Crystal form I of the compound of formula (I) prepared according to the method of Example 2 was ground, heated and tableted.
# [3] = Grinding treatment for 10 minutes in a mortar under nitrogen atmosphere, batch 20150427G
# [4] = Heating treatment for 3 hours at 80° C., batch 20150427H
# [5] = Tableting treatment, batch 20150427P
smiles,measurement,setting,value
"CC#CC(=O)N1CC[C@@H](n2cc(-c3ccc(Oc4c(F)cccc4F)cc3)c3c(N)n[nH]c(=O)c32)C1 [Amorphous form, (R)-4-amino-1-(1-(but-2-ynoyl)pyrrolidin-3-yl)-3-(4-(2,6-difluorophenoxy)phenyl)-1H-pyrrolo[2,3-d]pyridazin-7(6H)-one]","Purity by HPLC, 40° C.",[1]; Day 0,97.70%
same,"Purity by HPLC, 40° C.",[1]; Day 5,97.64%
same,"Purity by HPLC, 40° C.",[1]; Day 10,97.57%
same,"Purity by HPLC, 60° C.",[1]; Day 0,97.70%
same,"Purity by HPLC, 60° C.",[1]; Day 5,97.68%
same,"Purity by HPLC, 60° C.",[1]; Day 10,97.52%
same,"Purity by HPLC, RH 75%",[1]; Day 0,97.70%
same,"Purity by HPLC, RH 75%",[1]; Day 5,97.52%
same,"Purity by HPLC, RH 75%",[1]; Day 10,97.59%
same,"Purity by HPLC, RH 90%",[1]; Day 0,97.70%
same,"Purity by HPLC, RH 90%",[1]; Day 5,97.50%
same,"Purity by HPLC, RH 90%",[1]; Day 10,97.48%
same,"Purity by HPLC, Lighting",[1]; Day 0,97.70%
same,"Purity by HPLC, Lighting",[1]; Day 5,97.67%
same,"Purity by HPLC, Lighting",[1]; Day 10,97.62%
"CC#CC(=O)N1CC[C@@H](n2cc(-c3ccc(Oc4c(F)cccc4F)cc3)c3c(N)n[nH]c(=O)c32)C1 [Crystal form I, (R)-4-amino-1-(1-(but-2-ynoyl)pyrrolidin-3-yl)-3-(4-(2,6-difluorophenoxy)phenyl)-1H-pyrrolo[2,3-d]pyridazin-7(6H)-one]",Stability compared with the amorphous sample,"[1]; conditions of lighting, high temperature and high humidity",significantly better than that of the amorphous sample
same,"Purity by HPLC, 40° C.",[1]; Day 0,99.21%
same,"Purity by HPLC, 40° C.",[1]; Day 5,99.28%
same,"Purity by HPLC, 40° C.",[1]; Day 10,99.35%
same,"Purity by HPLC, 60° C.",[1]; Day 0,99.21%
same,"Purity by HPLC, 60° C.",[1]; Day 5,99.26%
same,"Purity by HPLC, 60° C.",[1]; Day 10,99.25%
same,"Purity by HPLC, RH 75%",[1]; Day 0,99.21%
same,"Purity by HPLC, RH 75%",[1]; Day 5,99.30%
same,"Purity by HPLC, RH 75%",[1]; Day 10,99.25%
same,"Purity by HPLC, RH 90%",[1]; Day 0,99.21%
same,"Purity by HPLC, RH 90%",[1]; Day 5,99.30%
same,"Purity by HPLC, RH 90%",[1]; Day 10,99.32%
same,"Purity by HPLC, Lighting",[1]; Day 0,99.21%
same,"Purity by HPLC, Lighting",[1]; Day 5,99.26%
same,"Purity by HPLC, Lighting",[1]; Day 10,99.25%
same,Crystal form after treatment,[2]; [3],Crystal
same,DSC peak after treatment,[2]; [3],239.32 °C
same,Crystal form after treatment,[2]; [4],Crystal
same,DSC peak after treatment,[2]; [4],238.98 °C
same,Crystal form after treatment,[2]; [5],Crystal
same,DSC peak after treatment,[2]; [5],241.19 °C
same,Stability of the crystal form,"[2]; ground, heated and tableted (grinding, pressure and heating)",stable
